The values that follow come from patent US9932314B2, “Pyrazole compounds and their use as T-type calcium channel blockers” (IDORSIA PHARMACEUTICALS LTD, priority 2015, dated 2018).

Each structure is given as a SMILES string.

In this experiment the target is T1, voltage-dependent T-type calcium channel subunit alpha-1G (Cav3.2) (Homo sapiens, UniProt O95180).
T1 construct: expressed in transfected cells; host or cells: HEK293
T1 sequence (O95180 whole entry): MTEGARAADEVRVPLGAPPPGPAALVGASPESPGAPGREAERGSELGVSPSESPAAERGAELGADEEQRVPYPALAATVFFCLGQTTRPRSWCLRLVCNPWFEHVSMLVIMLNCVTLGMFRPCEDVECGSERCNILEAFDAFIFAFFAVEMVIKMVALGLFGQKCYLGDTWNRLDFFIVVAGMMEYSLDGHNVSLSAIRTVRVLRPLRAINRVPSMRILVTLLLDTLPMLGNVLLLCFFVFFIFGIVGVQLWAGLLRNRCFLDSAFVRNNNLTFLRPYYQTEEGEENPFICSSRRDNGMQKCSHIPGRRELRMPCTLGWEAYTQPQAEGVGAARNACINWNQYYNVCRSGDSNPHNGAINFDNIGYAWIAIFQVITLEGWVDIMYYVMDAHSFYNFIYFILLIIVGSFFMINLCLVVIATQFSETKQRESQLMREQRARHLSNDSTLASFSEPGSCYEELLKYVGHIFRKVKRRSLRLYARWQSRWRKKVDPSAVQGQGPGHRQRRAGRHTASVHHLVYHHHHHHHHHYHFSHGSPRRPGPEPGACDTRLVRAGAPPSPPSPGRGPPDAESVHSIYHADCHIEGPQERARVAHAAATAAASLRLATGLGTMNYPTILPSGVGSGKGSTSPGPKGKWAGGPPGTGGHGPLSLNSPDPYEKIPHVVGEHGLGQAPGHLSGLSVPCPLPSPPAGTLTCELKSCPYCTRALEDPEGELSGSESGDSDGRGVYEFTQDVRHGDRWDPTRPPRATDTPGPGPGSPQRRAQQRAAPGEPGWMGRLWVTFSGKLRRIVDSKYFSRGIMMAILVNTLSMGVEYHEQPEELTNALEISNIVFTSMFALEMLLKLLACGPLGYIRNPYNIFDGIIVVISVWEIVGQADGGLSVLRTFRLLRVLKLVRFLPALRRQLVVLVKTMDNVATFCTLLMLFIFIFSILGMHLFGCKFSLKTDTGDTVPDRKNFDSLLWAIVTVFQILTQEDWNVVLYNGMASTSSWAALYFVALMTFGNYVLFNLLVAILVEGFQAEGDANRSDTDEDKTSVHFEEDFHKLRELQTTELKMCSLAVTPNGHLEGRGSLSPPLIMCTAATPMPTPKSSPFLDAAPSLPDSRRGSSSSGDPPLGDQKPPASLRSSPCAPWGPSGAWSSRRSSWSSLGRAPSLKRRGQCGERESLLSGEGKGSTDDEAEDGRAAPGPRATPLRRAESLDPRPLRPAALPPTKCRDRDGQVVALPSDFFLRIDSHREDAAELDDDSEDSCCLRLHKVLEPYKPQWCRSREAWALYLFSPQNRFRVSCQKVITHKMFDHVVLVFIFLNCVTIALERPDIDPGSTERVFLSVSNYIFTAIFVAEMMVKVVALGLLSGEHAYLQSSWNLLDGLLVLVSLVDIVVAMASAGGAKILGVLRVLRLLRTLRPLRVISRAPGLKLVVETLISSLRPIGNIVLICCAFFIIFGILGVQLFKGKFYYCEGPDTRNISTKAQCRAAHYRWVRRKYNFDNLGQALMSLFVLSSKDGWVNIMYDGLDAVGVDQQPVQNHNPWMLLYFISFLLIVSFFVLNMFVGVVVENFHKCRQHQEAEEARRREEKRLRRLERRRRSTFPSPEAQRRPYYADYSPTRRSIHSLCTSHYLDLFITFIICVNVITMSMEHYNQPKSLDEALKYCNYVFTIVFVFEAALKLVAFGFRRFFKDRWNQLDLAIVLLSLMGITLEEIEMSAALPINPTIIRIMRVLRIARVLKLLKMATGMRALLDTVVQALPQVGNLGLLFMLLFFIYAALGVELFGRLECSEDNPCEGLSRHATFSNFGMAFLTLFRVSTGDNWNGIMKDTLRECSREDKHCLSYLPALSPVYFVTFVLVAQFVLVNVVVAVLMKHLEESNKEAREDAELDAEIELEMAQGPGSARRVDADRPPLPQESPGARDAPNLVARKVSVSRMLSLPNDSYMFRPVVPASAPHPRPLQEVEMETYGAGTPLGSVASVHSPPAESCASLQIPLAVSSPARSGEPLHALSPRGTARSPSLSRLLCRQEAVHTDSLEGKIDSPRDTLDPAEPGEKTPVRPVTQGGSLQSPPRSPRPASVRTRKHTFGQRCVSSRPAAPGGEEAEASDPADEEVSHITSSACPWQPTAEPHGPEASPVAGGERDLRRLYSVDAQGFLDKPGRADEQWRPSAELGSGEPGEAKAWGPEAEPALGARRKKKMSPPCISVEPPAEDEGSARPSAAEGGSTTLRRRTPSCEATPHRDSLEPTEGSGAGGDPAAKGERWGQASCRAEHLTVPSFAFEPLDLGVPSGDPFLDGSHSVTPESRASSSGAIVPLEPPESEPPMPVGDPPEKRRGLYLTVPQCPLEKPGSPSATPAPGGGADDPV
Nature of the experiment: FLIPR calcium flux assay, HEK293 cells recombinantly expressing Cav3.2. In kind it is cell-based. Conditions: Cav3.2-channel, Fluo-4-AM, 3 min incubation, stimulation with 10 mM CaCl2. Put shortly:
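Calcium influx was triggered by adding CaCl2 to 10 mM final, 3 min after compounds in tetraethylammonium-based buffer, pH 7.2, reached Fluo-4-AM-loaded recombinant HEK293 cells. The integrated kinetic fluorescence signal per concentration gave concentration-response curves by non-linear sigmoidal regression.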
`N#Cc1ccc(Cn2ccc(NC(=O)Cc3ccc(C4(F)COC4)cc3)n2)cc1` [Example 250, N-[1-(4-Cyano-benzyl)-1H-pyrazol-3-yl]-2-[4-(3-fluoro-oxetan-3-yl)-phenyl]-acetamide]: the IC50 amounted to 127 nM.
Take `N#Cc1ccc(Cn2ccc(NC(=O)Cc3ccc(OC4COC4)cc3)n2)cc1` [Example 251, N-[1-(4-Cyano-benzyl)-1H-pyrazol-3-yl]-2-[4-(oxetan-3-yloxy)-phenyl]-acetamide]: the IC50 was found to be 303 nM.
To `Cn1ncc2cc(CC(=O)Nc3ccn(Cc4ccc(C#N)cc4)n3)ccc21` [Example 252, N-[1-(4-Cyano-benzyl)-1H-pyrazol-3-yl]-2-(1-methyl-1H-indazol-5-yl)-acetamide] belongs 56 nM; to `N#Cc1ccc(Cn2ccc(NC(=O)Cc3ccc(C4(F)COC4)cc3)n2)cc1F` [Example 253, N-[1-(4-Cyano-3-fluoro-benzyl)-1H-pyrazol-3-yl]-2-[4-(3-fluoro-oxetan-3-yl)-phenyl]-acetamide], 57 nM.
Take `N#Cc1ccc(Cn2ccc(NC(=O)Cc3ccc(OC4COC4)cc3)n2)cc1F` [Example 254, N-[1-(4-Cyano-3-fluoro-benzyl)-1H-pyrazol-3-yl]-2-[4-(oxetan-3-yloxy)-phenyl]-acetamide]: the IC50 was 100 nM.
In the case of `Cn1ncc2cc(CC(=O)Nc3ccn(Cc4ccc(C#N)c(F)c4)n3)ccc21` [Example 255, N-[1-(4-Cyano-3-fluoro-benzyl)-1H-pyrazol-3-yl]-2-(1-methyl-1H-indazol-5-yl)-acetamide], the IC50 was determined as 52 nM.
The result for `N#Cc1ccc(Cn2ccc(NC(=O)Cc3ccc(OCC4(F)COC4)cc3)n2)cc1` [Example 256, N-[1-(4-Cyano-benzyl)-1H-pyrazol-3-yl]-2-[4-(3-fluoro-oxetan-3-ylmethoxy)-phenyl]-acetamide] reads 251 nM; that for `N#Cc1ccc(Cn2ccc(NC(=O)Cc3ccc(OCC4(F)COC4)cc3)n2)cc1F` [Example 257, N-[1-(4-Cyano-3-fluoro-benzyl)-1H-pyrazol-3-yl]-2-[4-(3-fluoro-oxetan-3-ylmethoxy)-phenyl]-acetamide], 76 nM; that for `COC1(c2ccc(CC(=O)Nc3ccn(Cc4ccc(F)c(F)c4)n3)cn2)COC1` [Example 258, N-[1-(3,4-Difluoro-benzyl)-1H-pyrazol-3-yl]-2-[6-(3-methoxy-oxetan-3-yl)-pyridin-3-yl]-acetamide], 934 nM.
To `Cc1cn(C)c2cc(CC(=O)Nc3ccn(Cc4ccc(F)c(F)c4)n3)ccc12` [Example 259, N-[1-(3,4-Difluoro-benzyl)-1H-pyrazol-3-yl]-2-(1,3-dimethyl-1H-indol-6-yl)-acetamide] belongs 4.1 nM; to `Cc1cn(C)c2ccc(CC(=O)Nc3ccn(Cc4ccc(F)c(F)c4)n3)cc12` [Example 260, N-[1-(3,4-Difluoro-benzyl)-1H-pyrazol-3-yl]-2-(1,3-dimethyl-1H-indol-5-yl)-acetamide], 3.1 nM; to `N#Cc1ccc(Cn2ccc(NC(=O)Cc3ccc(OC4CC(F)(F)C4)cc3)n2)cc1F` [Example 261, N-[1-(4-Cyano-3-fluoro-benzyl)-1H-pyrazol-3-yl]-2-[4-(3,3-difluoro-cyclobutoxy)-phenyl]-acetamide], 15 nM.
With `N#Cc1ccc(Cn2ccc(NC(=O)Cc3ccc(OCC4COC4)cc3)n2)cc1F` [Example 262, N-[1-(4-Cyano-3-fluoro-benzyl)-1H-pyrazol-3-yl]-2-[4-(oxetan-3-ylmethoxy)-phenyl]-acetamide], the IC50 was determined as 155 nM.
The result for `CC1(COc2ccc(CC(=O)Nc3ccn(Cc4ccc(C#N)c(F)c4)n3)cc2)COC1` [Example 263, N-[1-(4-Cyano-3-fluoro-benzyl)-1H-pyrazol-3-yl]-2-[4-(3-methyl-oxetan-3-ylmethoxy)-phenyl]-acetamide] reads 97 nM; that for `CC(C)(C)c1ccc(CC(=O)Nc2ccn(Cc3ccc(C#N)c(F)c3)n2)cc1` [Example 264, 2-(4-tert-Butyl-phenyl)-N-[1-(4-cyano-3-fluoro-benzyl)-1H-pyrazol-3-yl]-acetamide], 5.4 nM.
